How the values were obtained:
leukemia HL-60 cells = experiment: In vitro cell inhibition assay (MTT method), HL-60; type: cell-based, human; conditions: 48 h
Protocol: (§1) The human cancer cell lines used for this assay were lung cancer A549 and leukemia HL-60.
(§2) The A549 or HL-60 cells were picked up from cell incubator, after washed for twice using PBS, cells were digested by 0.25% trypsin, and then add medium to terminate the digestion. After cells were collected using centrifuge and re-suspended, count cells under inverted microscope and add medium to make a density was 5×10^4 cells/mL. After 100 μL aliquots were added to each well of 96-well microtiter plates, cells were cultured in 5% incubator for overnight at 37° C., then the different concentration compounds were added to each well. After incubation for 48 h, MTT solution was added to each well and plates were then incubated for 4 h. The MTT tetrazolium was reduced to formazan by living cells. Then the formazan crystals were dissolved though adding DMSO to each well. The absorbance was read at 570 nm with a microplate reader.

lung cancer A549 cell = experiment: In vitro cell inhibition assay (MTT method), A549; type: cell-based, human; conditions: 48 h incubation
Protocol: as §1, §2

N#Cc1cc(Cl)c(Nc2c(Cl)c(Cl)c(C#N)c(Cl)c2C#N)c(Cl)c1 [Compound 6-98]
Proliferation inhibitory effect of the compounds on HL-60 cells (% of Control) (leukemia HL-60 cells; concentration 0.01 μM): −2.5 % of Control
Proliferation inhibitory effect of the compounds on HL-60 cells (% of Control) (leukemia HL-60 cells; concentration 0.1 μM): 10.1 % of Control
Proliferation inhibitory effect of the compounds on HL-60 cells (% of Control) (leukemia HL-60 cells; concentration 1 μM): 30.0 % of Control
Proliferation inhibitory effect of the compounds on HL-60 cells (% of Control) (leukemia HL-60 cells; concentration 10 μM): 91.7 % of Control
Proliferation inhibitory effect of the compounds on HL-60 cells (% of Control) (leukemia HL-60 cells; concentration 100 μM): 95.1 % of Control
Proliferation inhibitory effect of the compounds on A549 cell (% of Control) (lung cancer A549 cell; 0.01 μM): −2.5 % of Control
Proliferation inhibitory effect of the compounds on A549 cell (% of Control) (lung cancer A549 cell; 0.1 μM): −0.7 % of Control
Proliferation inhibitory effect of the compounds on A549 cell (% of Control) (lung cancer A549 cell; 1 μM): 11.7 % of Control
Proliferation inhibitory effect of the compounds on A549 cell (% of Control) (lung cancer A549 cell; 10 μM): 90.1 % of Control
Proliferation inhibitory effect of the compounds on A549 cell (% of Control) (lung cancer A549 cell; 100 μM): 93.2 % of Control

N#Cc1cc(Cl)cc(Cl)c1Nc1c(Cl)c(Cl)c(C#N)c(Cl)c1C#N [Compound 6-109]
Proliferation inhibitory effect of the compounds on HL-60 cells (% of Control) (leukemia HL-60 cells; concentration 0.01 μM): 0.1 % of Control
Proliferation inhibitory effect of the compounds on HL-60 cells (% of Control) (leukemia HL-60 cells; concentration 0.1 μM): 2.2 % of Control
Proliferation inhibitory effect of the compounds on HL-60 cells (% of Control) (leukemia HL-60 cells; concentration 1 μM): 2.9 % of Control
Proliferation inhibitory effect of the compounds on HL-60 cells (% of Control) (leukemia HL-60 cells; concentration 10 μM): 52.4 % of Control
Proliferation inhibitory effect of the compounds on HL-60 cells (% of Control) (leukemia HL-60 cells; concentration 100 μM): 94.4 % of Control

Cc1c(Cl)c([N+](=O)[O-])cc([N+](=O)[O-])c1Nc1ccc(C(F)(F)F)cc1 [Compounds 22-24]
Proliferation inhibitory effect of the compounds on HL-60 cells (% of Control) (leukemia HL-60 cells; concentration 0.01 μM): −22.4 % of Control
Proliferation inhibitory effect of the compounds on HL-60 cells (% of Control) (leukemia HL-60 cells; concentration 0.1 μM): −16.7 % of Control
Proliferation inhibitory effect of the compounds on HL-60 cells (% of Control) (leukemia HL-60 cells; concentration 1 μM): −9.3 % of Control
Proliferation inhibitory effect of the compounds on HL-60 cells (% of Control) (leukemia HL-60 cells; concentration 10 μM): 82.4 % of Control
Proliferation inhibitory effect of the compounds on HL-60 cells (% of Control) (leukemia HL-60 cells; concentration 100 μM): 94.3 % of Control

Cc1c(Cl)c([N+](=O)[O-])cc([N+](=O)[O-])c1Nc1ccc(C#N)cc1Cl [Compounds 22-61]
Proliferation inhibitory effect of the compounds on HL-60 cells (% of Control) (leukemia HL-60 cells; concentration 0.01 μM): 5.2 % of Control
Proliferation inhibitory effect of the compounds on HL-60 cells (% of Control) (leukemia HL-60 cells; concentration 0.1 μM): 7.8 % of Control
Proliferation inhibitory effect of the compounds on HL-60 cells (% of Control) (leukemia HL-60 cells; concentration 1 μM): 11.0 % of Control
Proliferation inhibitory effect of the compounds on HL-60 cells (% of Control) (leukemia HL-60 cells; concentration 10 μM): 85.7 % of Control
Proliferation inhibitory effect of the compounds on HL-60 cells (% of Control) (leukemia HL-60 cells; concentration 100 μM): 89.8 % of Control

Cc1c(Cl)c([N+](=O)[O-])cc([N+](=O)[O-])c1Nc1c(Cl)cc(Cl)cc1Cl [Compounds 22-98]
Proliferation inhibitory effect of the compounds on HL-60 cells (% of Control) (leukemia HL-60 cells; concentration 0.01 μM): −7.3 % of Control
Proliferation inhibitory effect of the compounds on HL-60 cells (% of Control) (leukemia HL-60 cells; concentration 0.1 μM): 1.3 % of Control
Proliferation inhibitory effect of the compounds on HL-60 cells (% of Control) (leukemia HL-60 cells; concentration 1 μM): 9.5 % of Control
Proliferation inhibitory effect of the compounds on HL-60 cells (% of Control) (leukemia HL-60 cells; concentration 10 μM): 77.7 % of Control
Proliferation inhibitory effect of the compounds on HL-60 cells (% of Control) (leukemia HL-60 cells; concentration 100 μM): 91.0 % of Control

Cc1c(Cl)c([N+](=O)[O-])cc([N+](=O)[O-])c1Nc1c(Cl)cc(C#N)cc1Cl [Compounds 22-104]
Proliferation inhibitory effect of the compounds on HL-60 cells (% of Control) (leukemia HL-60 cells; concentration 0.01 μM): 4.1 % of Control
Proliferation inhibitory effect of the compounds on HL-60 cells (% of Control) (leukemia HL-60 cells; concentration 0.1 μM): −7.3 % of Control
Proliferation inhibitory effect of the compounds on HL-60 cells (% of Control) (leukemia HL-60 cells; concentration 1 μM): −2.1 % of Control
Proliferation inhibitory effect of the compounds on HL-60 cells (% of Control) (leukemia HL-60 cells; concentration 10 μM): 60.5 % of Control
Proliferation inhibitory effect of the compounds on HL-60 cells (% of Control) (leukemia HL-60 cells; concentration 100 μM): 94.0 % of Control

COC(=O)c1cc(Cl)c(Nc2c([N+](=O)[O-])cc([N+](=O)[O-])c(Cl)c2C)c(Cl)c1 [Compounds 22-107]
Proliferation inhibitory effect of the compounds on HL-60 cells (% of Control) (leukemia HL-60 cells; concentration 0.01 μM): 2.8 % of Control
Proliferation inhibitory effect of the compounds on HL-60 cells (% of Control) (leukemia HL-60 cells; concentration 0.1 μM): −9.3 % of Control
Proliferation inhibitory effect of the compounds on HL-60 cells (% of Control) (leukemia HL-60 cells; concentration 1 μM): −7.0 % of Control
Proliferation inhibitory effect of the compounds on HL-60 cells (% of Control) (leukemia HL-60 cells; concentration 10 μM): 65.4 % of Control
Proliferation inhibitory effect of the compounds on HL-60 cells (% of Control) (leukemia HL-60 cells; concentration 100 μM): 94.4 % of Control

Cc1cc([N+](=O)[O-])cc([N+](=O)[O-])c1Nc1c(Cl)cc(C(F)(F)F)cc1Cl [Compounds 30-101]
Proliferation inhibitory effect of the compounds on HL-60 cells (% of Control) (leukemia HL-60 cells; concentration 0.01 μM): −6.4 % of Control
Proliferation inhibitory effect of the compounds on HL-60 cells (% of Control) (leukemia HL-60 cells; concentration 0.1 μM): −14.2 % of Control
Proliferation inhibitory effect of the compounds on HL-60 cells (% of Control) (leukemia HL-60 cells; concentration 1 μM): −0.3 % of Control
Proliferation inhibitory effect of the compounds on HL-60 cells (% of Control) (leukemia HL-60 cells; concentration 10 μM): 57.3 % of Control
Proliferation inhibitory effect of the compounds on HL-60 cells (% of Control) (leukemia HL-60 cells; concentration 100 μM): 80.7 % of Control
